According to patent publication US11352344B2, “Antagonists of the muscarinic acetylcholine receptor M4” (Vanderbilt University, priority 2017, dated 2022):

Target: T1, Human M4 (Homo sapiens, UniProt P08173)
T1 construct: expressed in transfected cells; host or cells: CHO-K1 (Chinese hamster ovary) cells, stably co-transfected with Gqi5
T1 sequence (P08173 1-479): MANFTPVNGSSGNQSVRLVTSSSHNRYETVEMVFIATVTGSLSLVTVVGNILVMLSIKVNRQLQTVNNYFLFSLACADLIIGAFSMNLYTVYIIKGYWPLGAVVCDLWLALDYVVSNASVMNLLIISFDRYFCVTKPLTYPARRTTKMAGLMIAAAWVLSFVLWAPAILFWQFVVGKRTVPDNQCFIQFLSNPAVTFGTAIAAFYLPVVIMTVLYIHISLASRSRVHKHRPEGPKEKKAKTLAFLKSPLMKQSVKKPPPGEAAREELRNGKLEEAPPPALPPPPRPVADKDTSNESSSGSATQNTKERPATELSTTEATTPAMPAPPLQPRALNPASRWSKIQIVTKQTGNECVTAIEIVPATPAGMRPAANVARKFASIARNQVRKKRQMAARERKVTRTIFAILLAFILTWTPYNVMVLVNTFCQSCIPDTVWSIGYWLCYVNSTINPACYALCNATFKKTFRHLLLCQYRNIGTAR
Assay: mAChR M4 cell-based functional assay (calcium flux, antagonism of EC80 acetylcholine response)
Conditions: for remaining activity at 30 µM: % ACh maximum at 30 μM, human M4, read-out: Emin; for IC50: M4/Gqi5/CHO-K1 cells, decrease of response to EC80 acetylcholine
Description: Human or rat M4 cDNA, along with the chimeric G protein Gqi5, were transfected into Chinese hamster ovary (CHO-K1) cells purchased from the American Type Culture Collection using Lipofectamine2000. M4/Gqi5/CHO cells were grown in Ham's F-12 medium containing 10% heat-inactivated fetal bovine serum (FBS), 20 mM HEPES, 500 μg/mL G418 sulfate, and 200 μg/mL Hygromycin B.
For high throughput measurement of agonist-evoked increases in intracellular calcium, CHO-K1 cells stably expressing muscarinic receptors were plated in growth medium lacking G418 and hygromycin at 15,000 cells/20 μL/well in Greiner 384-well black-walled, tissue culture (TC)-treated, clear-bottom plates (VWR). Cells were incubated overnight at 37° C. and 5% CO2. The next day, cells were washed using an ELX 405 (BioTek) with assay buffer; the final volume was then aspirated to 20 μL. Next, 20 μL of a 2.3 μM stock of Fluo-4/acetoxymethyl ester (Invitrogen, Carlsbad, Calif.), prepared as a 2.3 mM stock in DMSO and mixed in a 1:1 ratio with 10% (w/v) Pluronic F-127 and diluted in assay buffer, was added to the wells and the cell plates were incubated for 50 min at 37° C. and 5% CO2. Dye was removed by washing with the ELX 405 and the final volume was aspirated to 20 μL. Compound master plates were formatted in a 10 point concentration-response curve (CRC) format (1:3 dilutions) in 100% DMSO with a starting concentration of 10 or 1 mM using a BRAVO liquid handler (Agilent). Test compound CRCs were then transferred to daughter plates (240 nL) using the Echo acoustic plate reformatter (Labcyte, Sunnyvale, Calif.) and then diluted into assay buffer (40 μL) to a 2× stock using a Thermo Fisher Combi (Thermo Fisher Scientific, Waltham, Mass.).
Calcium flux was measured using the Functional Drug Screening System (FDSS) 6000 or 7000 (Hamamatsu Corporation, Tokyo, Japan) as an increase in the fluorescent static ratio. Compounds were applied to cells (20 μL, 2×) using the automated system of the FDSS at 2 seconds into the protocol and the data were collected at 1 Hz. At 143 s, 10 μL of an EC20 concentration of the muscarinic receptor agonist acetylcholine was added (5×), followed by the addition of 12 μL of an EC80 concentration of acetylcholine at the 268 s time point (5×). Agonist activity was analyzed as a concentration-dependent increase in calcium mobilization upon compound addition. Positive allosteric modulator activity was analyzed as a concentration-dependent increase in the EC20 acetylcholine response. Antagonist activity was analyzed as a concentration-dependent decrease in the EC80 acetylcholine response; for the purposes of the tables herein, an IC50 (inhibitory concentration 50) was calculated as a concentration-dependent decrease of the response elicited by an EC80 concentration of acetylcholine. Concentration-response curves were generated using a four-parameter logistical equation in XLFit curve fitting software (IDBS, Bridgewater, N.J.) for Excel (Microsoft, Redmond, Wash.) or Prism (GraphPad Software, Inc., San Diego, Calif.) or the Dotmatics software platform (Dotmatics, Bishop's Stortford, UK).
Compounds were synthesized as described above. Activity (IC50 and Emin) was determined in the mAChR M4 cell-based functional assay as described above and the data are shown in Table 5. The compound numbers correspond to the compound numbers used in Examples 1-4 and Tables 1-4.

| Compound | remaining activity at 30 µM | IC50 |
| --- | --- | --- |
| Cc1cnn(C)c1-c1ccc(NC2CCC3CN(CC45CC6CC(CC(C6)C4)C5)CC32)nn1 (stereo not shown) [Compound 2, 2-(1-adamantylmethyl)-N-[6-(2,4-dimethylpyrazol-3-yl)pyridazin-3-yl]-3,3a,4,5,6,6a-hexahydro-1H-cyclopenta[c]pyrrol-4-amine] | 8.16% | 2170 nM |
| Cc1cnn(C)c1-c1ccc(NC2CCC3CN(CC4CC5C=CC4C5)CC32)nn1 (stereo not shown) [Compound 3, 2-(5-bicyclo[2.2.1]hept-2-enylmethyl)-N-[6-(2,4-dimethylpyrazol-3-yl)pyridazin-3-yl]-3,3a,4,5,6,6a-hexahydro-1H-cyclopenta[c]pyrrol-4-amine] | 14% | 3280 nM |
| Cc1cccnc1CN1CC2CCC(Oc3ccc(-c4c(C)cnn4C)nn3)C2C1 (stereo not shown) [Compound 4, 4-[6-(2,4-Dimethylpyrazol-3-yl)pyridazin-3-yl]oxy-2-[(3-methyl-2-pyridyl)methyl]-3,3a,4,5,6,6a-hexahydro-1H-cyclopenta[c]pyrrole] | 31.9% | > 10000 nM |
| Cc1cnn(C)c1-c1ccc(OC2CCC3CN(CC45CC6CC(CC(C6)C4)C5)CC32)nn1 (stereo not shown) [Compound 6, 2-(1-adamantylmethyl)-4-[6-(2,4-dimethylpyrazol-3-yl)pyridazin-3-yl]oxy-3,3a,4,5,6,6a-hexahydro-1H-cyclopenta[c]pyrrole] | 3.95% | 1030 nM |
| Cc1cnn(C)c1-c1ccc(OC2CCC3CN(CC4CC5C=CC4C5)CC32)nn1 (stereo not shown) [Compound 7, 2-(5-bicyclo[2.2.1]hept-2-enylmethyl)-4-[6-(2,4-dimethylpyrazol-3-yl)pyridazin-3-yl]oxy-3,3a,4,5,6,6a-hexahydro-1H-cyclopenta[c]pyrrole] | 5.46% | 1360 nM |
| Cc1cnn(C)c1-c1ccc(OC2CCC3CN(Cc4ccccc4)CC32)nn1 (stereo not shown) [Compound 8, 2-benzyl-4-[6-(2,4-dimethylpyrazol-3-yl)pyridazin-3-yl]oxy-3,3a,4,5,6,6a-hexahydro-1H-cyclopenta[c]pyrrole] | 43.3% | > 10000 nM |
| Cc1cnn(C)c1-c1ccc(OC2CCC3CN(CCc4ccccc4)CC32)nn1 (stereo not shown) [Compound 9, 4-[6-(2,4-dimethylpyrazol-3-yl)pyridazin-3-yl]oxy-2-(2-phenylethyl)-3,3a,4,5,6,6a-hexahydro-1H-cyclopenta[c]pyrrole] | 29.6% | > 10000 nM |
| Cc1cnn(C)c1-c1ccc(NCCC2CCC3CN(CC4CCCOC4)CC23)nn1 (stereo not shown) [Compound 11, 6-(2,4-dimethylpyrazol-3-yl)-N-[2-[2-(tetrahydropyran-3-ylmethyl)-3,3a,4,5,6,6a-hexahydro-1H-cyclopenta[c]pyrrol-4-yl]ethyl]pyridazin-3-amine] | 20.9% | > 10000 nM |
| Cc1cnn(C)c1-c1ccc(NCCC2CCC3CN(CC4CCOCC4)CC23)nn1 (stereo not shown) [Compound 12, 6-(2,4-dimethylpyrazol-3-yl)-N-[2-[2-(tetrahydropyran-4-ylmethyl)-3,3a,4,5,6,6a-hexahydro-1H-cyclopenta[c]pyrrol-4-yl]ethyl]pyridazin-3-amine] | 29.4% | > 10000 nM |
| Cc1cnn(C)c1-c1ccc(NCCC2CCC3CN(CC4CC5C=CC4C5)CC23)nn1 (stereo not shown) [Compound 13, N-[2-[2-(5-bicyclo[2.2.1]hept-2-enylmethyl)-3,3a,4,5,6,6a-hexahydro-1H-cyclopenta[c]pyrrol-4-yl]ethyl]-6-(2,4-dimethylpyrazol-3-yl)pyridazin-3-amine] | 3.75% | 65 nM |
| Cc1cnn(C)c1-c1ccc(NCCC2CCC3CN(CCCc4ccccc4)CC23)nn1 (stereo not shown) [Compound 17, 6-(2,4-dimethylpyrazol-3-yl)-N-[2-[2-(3-phenylpropyl)-3,3a,4,5,6,6a-hexahydro-1H-cyclopenta[c]pyrrol-4-yl]ethyl]pyridazin-3-amine] | 5.4% | 1050 nM |
| Cc1cnn(C)c1-c1ccc(NCCC2CCC3CN(CC45CC6CC(CC(C6)C4)C5)CC23)nn1 (stereo not shown) [Compound 18, N-[2-[2-(1-adamantylmethyl)-3,3a,4,5,6,6a-hexahydro-1H-cyclopenta[c]pyrrol-4-yl]ethyl]-6-(2,4-dimethylpyrazol-3-yl)pyridazin-3-amine] | 3.52% | 402 nM |
| Cc1cnn(C)c1-c1ccc(NCC2CCC3CN(CC45CC6CC(CC(C6)C4)C5)CC23)nn1 (stereo not shown) [Compound 20, N-[[2-(1-adamantylmethyl)-3,3a,4,5,6,6a-hexahydro-1H-cyclopenta[c]pyrrol-4-yl]methyl]-6-(2,4-dimethylpyrazol-3-yl)pyridazin-3-amine] | 4.4% | 53 nM |

Results, then the molecule that gave them:

| remaining activity at 30 µM | IC50 | Compound |
| --- | --- | --- |
| 31.1% | > 10000 nM | Cc1cnn(C)c1-c1ccc(NC2CCC3CN(CCC(C)(C)C)CC32)nn1 (stereo not shown) [Compound 1, 2-(3,3-Dimethylbutyl)-N-[6-(2,4-dimethylpyrazol-3-yl)pyridazin-3-yl]-3,3a,4,5,6,6a-hexahydro-1H-cyclopenta[c]pyrrol-4-amine] |
| 9.66% | 3570 nM | Cc1cnn(C)c1-c1ccc(OC2CCC3CN(CCC(C)(C)C)CC32)nn1 (stereo not shown) [Compound 5, 2-(3,3-dimethylbutyl)-4-[6-(2,4-dimethylpyrazol-3-yl)pyridazin-3-yl]oxy-3,3a,4,5,6,6a-hexahydro-1H-cyclopenta[c]pyrrole] |
| 4.47% | 130 nM | Cc1cnn(C)c1-c1ccc(NCCC2CCC3CN(CCC(C)(C)C)CC23)nn1 (stereo not shown) [Compound 10, N-[2-[2-(3,3-Dimethylbutyl)-3,3a,4,5,6,6a-hexahydro-1H-cyclopenta[c]pyrrol-4-yl]ethyl]-6-(2,4-dimethylpyrazol-3-yl)pyridazin-3-amine] |
| 7.73% | 1780 nM | Cc1cccnc1CN1CC2CCC(CCNc3ccc(-c4c(C)cnn4C)nn3)C2C1 (stereo not shown) [Compound 14, 6-(2,4-dimethylpyrazol-3-yl)-N-[2-[2-[(3-methyl-2-pyridyl)methyl]-3,3a,4,5,6,6a-hexahydro-1H-cyclopenta[c]pyrrol-4-yl]ethyl]pyridazin-3-amine] |
| 8.5% | 2260 nM | Cc1cnn(C)c1-c1ccc(NCCC2CCC3CN(Cc4ccccc4)CC23)nn1 (stereo not shown) [Compound 15, N-[2-(2-benzyl-3,3a,4,5,6,6a-hexahydro-1H-cyclopenta[c]pyrrol-4-yl)ethyl]-6-(2,4-dimethylpyrazol-3-yl)pyridazin-3-amine] |
| 6.59% | 2210 nM | Cc1cnn(C)c1-c1ccc(NCCC2CCC3CN(CCc4ccccc4)CC23)nn1 (stereo not shown) [Compound 16, 6-(2,4-dimethylpyrazol-3-yl)-N-[2-[2-(2-phenylethyl)-3,3a,4,5,6,6a-hexahydro-1H-cyclopenta[c]pyrrol-4-yl]ethyl]pyridazin-3-amine] |
| 5.11% | 149 nM | Cc1cnn(C)c1-c1ccc(NCC2CCC3CN(CCC(C)(C)C)CC23)nn1 (stereo not shown) [Compound 19, N-[[2-(3,3-Dimethylbutyl)-3,3a,4,5,6,6a-hexahydro-1H-cyclopenta[c]pyrrol-4-yl]methyl]-6-(2,4-dimethylpyrazol-3-yl)pyridazin-3-amine] |
